From ChEMBL document CHEMBL3616370, “Pandalisines A and B, novel indolizidine alkaloids from the leaves of Pandanus utilis” (Bioorg Med Chem Lett, 2015)
The source made the active and inactive calls.

Key:
Format in all cases: functional, cell-based
[1] = system: MDA-MB-231; assay: Cytotoxicity against human MDA-MB-231 cells at 60 ug/ml after 72 hrs by MTT assay
[2] = system: HepG2; assay: Cytotoxicity against human HepG2 cells at 60 ug/ml after 72 hrs by MTT assay
[3] = system: A549; assay: Cytotoxicity against human A549 cells at 60 ug/ml after 72 hrs by MTT assay

Measured: Activity

CC1=C/C(=C2\CCCN3CCC[C@H]23)OC1=O
inactive: all assays above

CC1=C/C(=C2/CCCN3CCC[C@H]23)OC1=O
inactive: all assays above
